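Values below derive from 48-hour exposures of cells grown in 96-well plates, with endpoints linearly interpolated between the two concentrations bracketing the appropriate inhibition level. At the GI50, growth is halved.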 Activity calls are given as the source filed them. Cut-off read from the data, not from the text of the source: active = GI50 up to about 1.1 µM and inactive = higher.
Columns and labels:
Experiment in all cases: inhibition of tumour cell growth, NCI panel, 48 h
ACHN = tested on: ACHN
CAKI-1 = tested on: CAKI-1
Hs-578T = tested on: Hs-578T
IGROV-1 = tested on: IGROV-1
LOX IMVI = tested on: LOX IMVI
NCI-H460 = tested on: NCI-H460
OVCAR-5 = tested on: OVCAR-5
OVCAR-8 = tested on: OVCAR-8
RPMI-8226 = tested on: RPMI-8226
SF-268 = tested on: SF-268
SF-295 = tested on: SF-295
SK-MEL-28 = tested on: SK-MEL-28
SK-MEL-5 = tested on: SK-MEL-5
SW-620 = tested on: SW-620
TK-10 = tested on: TK-10
UACC-257 = tested on: UACC-257
UACC-62 = tested on: UACC-62
A498 = tested on: A498
HCC 2998 = tested on: HCC 2998

Measured: GI50

COc1ccc(Cc2coc3ccccc3c2=O)cc1OC
inactive: ACHN 72.4 µM | CAKI-1 11.6 µM | Hs-578T 56.6 µM | IGROV-1 > 100 µM | LOX IMVI 49.9 µM | NCI-H460 68.1 µM | OVCAR-5 > 100 µM | OVCAR-8 > 100 µM | RPMI-8226 33.3 µM | SF-268 > 100 µM | SF-295 47.2 µM | SK-MEL-28 > 100 µM | SK-MEL-5 21.3 µM | SW-620 > 100 µM | TK-10 > 100 µM | UACC-257 59.2 µM | UACC-62 > 100 µM

C/C=C(C)/C=C/CC(C)CCC=C(C)C (stereo not given)
inactive: A498 > 100 µM | ACHN > 100 µM | CAKI-1 > 100 µM | IGROV-1 > 100 µM | LOX IMVI > 100 µM | NCI-H460 > 100 µM | OVCAR-5 > 100 µM | OVCAR-8 > 100 µM | SF-295 > 100 µM | SK-MEL-28 > 100 µM | SK-MEL-5 > 100 µM | SW-620 > 100 µM | TK-10 > 100 µM | UACC-257 > 100 µM | UACC-62 > 100 µM

c1ccc2sc(C3(N4CCCC4)CCCCCC3)cc2c1
inactive: A498 16.6 µM | ACHN 23.6 µM | CAKI-1 20.9 µM | HCC 2998 13.6 µM | IGROV-1 19.1 µM | LOX IMVI 14.7 µM | NCI-H460 13.3 µM | OVCAR-5 11.7 µM | OVCAR-8 17.9 µM | SF-268 13.5 µM | SF-295 15 µM | SK-MEL-28 20.4 µM | SK-MEL-5 16.6 µM | SW-620 16.9 µM | TK-10 17.4 µM | UACC-257 16 µM | UACC-62 16.2 µM

CC1(C)CC(=O)C2=C(C1)N(c1ccccc1)C1(O)C=CC(O)=C3C(=O)c4ccccc4C(=O)C321 (stereo not given)
inactive: ACHN 21.1 µM | CAKI-1 26.2 µM | HCC 2998 30.2 µM | IGROV-1 26 µM | LOX IMVI 21 µM | NCI-H460 26.3 µM | OVCAR-5 42.8 µM | OVCAR-8 37.8 µM | RPMI-8226 22.3 µM | SF-268 20.2 µM | SF-295 30 µM | SK-MEL-28 17.8 µM | TK-10 24.4 µM | UACC-257 33.8 µM | UACC-62 19.2 µM

NS(=O)(=O)c1nnc(NS(=O)(=O)C(F)(F)F)s1
inactive: A498 > 100 µM | ACHN > 100 µM | CAKI-1 > 100 µM | HCC 2998 > 100 µM | NCI-H460 > 100 µM | OVCAR-5 > 100 µM | OVCAR-8 > 100 µM | RPMI-8226 > 100 µM | SF-268 > 100 µM | SF-295 > 100 µM | SK-MEL-28 > 100 µM | SW-620 > 100 µM | TK-10 > 100 µM | UACC-62 > 100 µM

O=C(/N=N/C(=O)OCc1ccccc1)OCc1ccccc1
inactive: ACHN 76.4 µM | CAKI-1 49.8 µM | HCC 2998 > 100 µM | IGROV-1 > 100 µM | LOX IMVI > 100 µM | NCI-H460 > 100 µM | OVCAR-5 > 100 µM | OVCAR-8 > 100 µM | RPMI-8226 53.2 µM | SF-268 96.4 µM | SF-295 35 µM | SK-MEL-5 > 100 µM | SW-620 > 100 µM | TK-10 > 100 µM | UACC-257 > 100 µM | UACC-62 > 100 µM

c1ccc2c(c1)CC1=C(O2)c2ccccc2OC1
inactive: A498 61.1 µM | ACHN 34.2 µM | CAKI-1 23.1 µM | HCC 2998 21.8 µM | IGROV-1 23.1 µM | LOX IMVI 17.9 µM | OVCAR-5 > 100 µM | OVCAR-8 35.7 µM | RPMI-8226 21.8 µM | SF-268 29.4 µM | SF-295 39.1 µM | SK-MEL-5 22.4 µM | SW-620 19.8 µM | TK-10 33.2 µM | UACC-257 28.2 µM | UACC-62 26.2 µM
